How the values were obtained:
[1] = biological target: TEAD1(210-426) binding to YAP(50-100) (Homo sapiens, UniProt P28347); experiment: TR-FRET Assay for TEAD1(210-426) Binding to YAP(50-100); conditions: His-TEAD 10 nM, YAP-Biotin peptide 50 nM
Description: Compounds were performed 3 fold serial dilution, 12 data points, added to 384 well white plate. The final DMSO concentration is 1%, duplicate for each concentration. Then His-TEAD protein was added to a final concentration of 10 nM, and allowed to preincubate for 30 minutes at room temperature. Assay buffer was added as background control.
YAP-Biotin peptide was added to a final concentration of 50 nM, mixed well, incubate 10 minutes at room temperature. The YAP(50-100) peptide sequence used here is named SEQ ID NO: 2
The Europium-labeled anti-6×His antibody and APC labeled streptavidin were diluted according to the instructions, this detection solution was mixed 1:1 with reaction solution, incubated 1 hour at room temperature.
TR-FRET measurements were made on an Envision (Perkin Elmer), using an excitation wavelength of 320 nm and emissions read at 620 nm and 665 nm. The ratio of the 665 nm to the 620 nm multiply 10000 provides a normalized TR-FRET signal that represents the extent of binding.
Half inhibition concentration IC50 value was calculated by XLfit software.

MSTO-211H cells = experiment: Proliferation Assay (CellTiter-Glo Luminescent Cell Viability Assay); format: cell-based; conditions: Homo sapiens, 96 hours treatment
Description: Example 5: Proliferation Assay
The effect of compound on YAP driven cancer cells proliferation was assessed in MSTO-211H (ATCC, CRL-2081TM) or NCI-H2052 (ATCC, CRL-5915TM) cells using CellTiter-Glo Luminescent Cell Viability Assay (Promega, G7570).
Briefly, individual cell lines were seeded in 96-well cell culture plate at the density of 1,500 cells per well and cultured in RPMII1640 (Gibco-A10491-01)+10% FBS (Gibco-10099-141C)+1% Penicillin-Streptomycin (5,000 U/mL, Gibco-15070-063) overnight at 37° C. with 5% CO2 before adding the compounds.
Following incubation, serial dilutions of compounds dissolved in DMSO were added to each well (3-fold dilution with 9 concentration points). The final concentration of DMSO present in this assay is below 0.5% and make duplication for each compound treated well.
Following 96 hours treatment, compound mediated cell growth inhibition was measured using CellTiter-Go Luminescent Cell Viability Assay (Promega, G7570). […] CellTiter-Glo in each assay well, mix and incubate at room temperature for 10 min. Read signal using EnVision® Multilabel Plate Reader (Perkin Elmer).
For data analysis, cell proliferation inhibition was calculated using the following formula:
Inhibition %=(1−(Compound treated well CTG signal/DMSO well CTG signal))*100.
IC50 values were calculated using GraphPad Prism software using a four-parameter fit model.

Chain of TEAD1(210-426) binding to YAP(50-100) (P28347 209-426): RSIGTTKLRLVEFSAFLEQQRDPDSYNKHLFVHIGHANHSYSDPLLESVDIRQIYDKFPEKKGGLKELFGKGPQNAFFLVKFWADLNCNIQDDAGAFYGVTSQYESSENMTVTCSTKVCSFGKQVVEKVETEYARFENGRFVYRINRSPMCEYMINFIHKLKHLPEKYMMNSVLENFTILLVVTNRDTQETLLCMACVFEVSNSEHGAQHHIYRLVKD

Structure (SMILES)	IC50 [1]	IC50 (MSTO-211H cells)
CNc1ccnc(Cn2ccc(-c3nn(-c4ccc(C(F)(F)F)cc4)c4cc(F)ccc34)cc2=O)n1 [Compound 53, 4-(6-fluoro-1-(4-(trifluoromethyl)phenyl)-1H-indazol-3-yl)-1-((4-(methylamino)pyrimidin-2-yl)methyl)pyridin-2(1H)-one]	≤ 100 nM	≤ 1000 nM
CNc1ccnc(Cn2ccc(-c3nn(-c4ccc(C(F)(F)F)cc4)c4ccc(F)cc34)cc2=O)n1 [Compound 54, 4-(5-fluoro-1-(4-(trifluoromethyl)phenyl)-1H-indazol-3-yl)-1-((4-(methylamino)pyrimidin-2-yl)methyl)pyridin-2(1H)-one]	≤ 100 nM	≤ 1000 nM
O=c1cc(-c2nn(-c3ccc(C(F)(F)F)cc3)c3ccccc23)ccn1Cc1nccc(N2CC[C@H](O)C2)n1 [Compound 55, (S)-1-((4-(3-hydroxypyrrolidin-1-yl)pyrimidin-2-yl)methyl)-4-(1-(4-(trifluoromethyl)phenyl)-1H-indazol-3-yl)pyridin-2(1H)-one]	≤ 100 nM	≤ 1000 nM
O=c1cc(-n2nc(-c3ccc(C(F)(F)F)cc3)c3ncccc32)ccn1Cc1ccnc(OCCO)n1 [Compound 56, 1-((2-(2-hydroxyethoxy)pyrimidin-4-yl)methyl)-4-(3-(4-(trifluoromethyl)phenyl)-1H-pyrazolo[4,3-b]pyridin-1-yl)pyridin-2(1H)-one]	≤ 100 nM	≤ 1000 nM
CNc1nccc(Cn2ccc(-c3nn(-c4ccc(C(F)(F)F)cc4C)c4ncccc34)cc2=O)n1 [Compound 57]	≤ 100 nM	≤ 1000 nM
CNc1nccc(Cn2ccc(-c3nn(-c4ccc(F)cc4)c4ncccc34)cc2=O)n1 [Compound 58, 4-(1-(4-fluorophenyl)-1H-pyrazolo[3,4-b]pyridin-3-yl)-1-((2-(methylamino)pyrimidin-4-yl)methyl) pyridin-2(1H)-one]	≤ 100 nM	≤ 1000 nM
CNc1nccc(Cn2ccc(-c3nn(-c4ccc(OC(F)(F)F)cc4)c4ncccc34)cc2=O)n1 [Compound 59, 1-((2-(methylamino)pyrimidin-4-yl)methyl)-4-(1-(4-(trifluoromethoxy)phenyl)-1H-pyrazolo[3,4-b]pyridin-3-yl) pyridin-2(1H)-one]	≤ 100 nM	≤ 1000 nM
Nc1cccc(Cn2ccc(-c3nn(-c4ccc(C(F)(F)F)cc4)c4ccccc34)cc2=O)n1 [Compound 60, 1-((6-aminopyridin-2-yl)methyl)-4-(1-(4-(trifluoromethyl)phenyl)-1H-indazol-3-yl)pyridin-2(1H)-one]	≤ 100 nM	≤ 1000 nM
Nc1nccc(Cn2ccc(-c3nn(-c4ccc(C(F)(F)F)cc4)c4ccccc34)cc2=O)n1 [Compound 61, 1-((2-aminopyrimidin-4-yl)methyl)-4-(1-(4-(trifluoromethyl)phenyl)-1H-indazol-3-yl)pyridin-2(1H)-one]	≤ 100 nM	≤ 1000 nM
O=c1cc(-c2nn(-c3ccc(C(F)(F)F)cc3)c3ccccc23)ccn1Cc1cccnn1 [Compound 62, 1-(pyridazin-3-ylmethyl)-4-(1-(4-(trifluoromethyl)phenyl)-1H-indazol-3-yl)pyridin-2(1H)-one]	≤ 100 nM	≤ 1000 nM
O=c1cc(-c2nn(-c3ccc(C(F)(F)F)cc3)c3ccccc23)ccn1Cc1cnccn1 [Compound 63, 1-(pyrazin-2-ylmethyl)-4-(1-(4-(trifluoromethyl)phenyl)-1H-indazol-3-yl)pyridin-2(1H)-one]	≤ 100 nM	≤ 1000 nM
Cn1ccc(Cn2ccc(-c3cn(-c4ccc(C(F)(F)F)cc4)c4ncccc34)cc2=O)n1 [Compound 64, 1-((1-methyl-1H-pyrazol-3-yl)methyl)-4-(1-(4-(trifluoromethyl)phenyl)-1H-pyrrolo[2,3-b]pyridin-3-yl)pyridin-2(1H)-one]	≤ 100 nM	≤ 1000 nM
Nc1cncc(Cn2ccc(-c3nn(-c4ccc(C(F)(F)F)cc4)c4ccccc34)cc2=O)n1 [Compound 65, 1-((6-aminopyrazin-2-yl)methyl)-4-(1-(4-(trifluoromethyl)phenyl)-1H-indazol-3-yl)pyridin-2(1H)-one]	≤ 100 nM	≤ 1000 nM
CN(C)c1nccc(Cn2ccc(-c3nn(-c4ccc(C(F)(F)F)cc4)c4ccccc34)cc2=O)n1 [Compound 66, 1-((2-(dimethylamino)pyrimidin-4-yl)methyl)-4-(1-(4-(trifluoromethyl)phenyl)-1H-indazol-3-yl)pyridin-2(1H)-one]	≤ 100 nM	≤ 1000 nM
CNc1nccc(Cn2ccc(-c3nn(-c4ccc(C(F)(F)F)cc4)c4ccccc34)cc2=O)c1F [Compound 67, 1-((3-fluoro-2-(methylamino)pyridin-4-yl)methyl)-4-(1-(4-(trifluoromethyl)phenyl)-1H-indazol-3-yl)pyridin-2(1H)-one]	≤ 100 nM	≤ 1000 nM
COc1ccnc(Cn2ccc(-c3nn(-c4ccc(C(F)(F)F)cc4)c4ccccc34)cc2=O)n1 [Compound 68, 1-((4-methoxypyrimidin-2-yl)methyl)-4-(1-(4-(trifluoromethyl)phenyl)-1H-indazol-3-yl)pyridin-2(1H)-one]	≤ 100 nM	≤ 1000 nM
CNc1ccnc(Cn2ccc(-c3nn(-c4ccc(C(F)(F)F)cc4)c4ccccc34)cc2=O)n1 [Compound 69, 1-((4-(methylamino)pyrimidin-2-yl)methyl)-4-(1-(4-(trifluoromethyl)phenyl)-1H-indazol-3-yl)pyridin-2(1H)-one]	≤ 100 nM	≤ 1000 nM
CNc1ccnc(Cn2ccc(-c3nn(-c4ccc(C(F)(F)F)cc4)c4ncccc34)cc2=O)n1 [Compound 70, 1-((4-(methylamino)pyrimidin-2-yl)methyl)-4-(1-(4-(trifluoromethyl)phenyl)-1H-pyrazolo[3,4-b]pyridin-3-yl)pyridin-2(1H)-one]	≤ 100 nM	≤ 1000 nM
O=c1cc(-c2nn(-c3ccc(C(F)(F)F)cc3)c3ccccc23)ccn1Cc1nccc(O)n1 [Compound 71]	≤ 100 nM	≤ 1000 nM
CN(CCO)c1nccc(Cn2ccc(-c3nn(-c4ccc(C(F)(F)F)cc4)c4ncccc34)cc2=O)n1 [Compound 72]	≤ 100 nM	≤ 1000 nM
O=c1cc(-c2nn(-c3ccc(C(F)(F)F)cc3)c3ncccc23)ccn1Cc1ccnc(NCCO)n1 [Compound 73, 1-((2-((2-hydroxyethyl)amino)pyrimidin-4-yl)methyl)-4-(1-(4-(trifluoromethyl)phenyl)-1H-pyrazolo[3,4-b]pyridin-3-yl)pyridin-2(1H)-one]	≤ 100 nM	≤ 1000 nM
O=c1cc(-c2nn(-c3ccc(C(F)(F)F)cc3)c3ncccc23)ccn1Cc1ccn(CCO)n1 [Compound 74, 1-((1-(2-hydroxyethyl)-1H-pyrazol-3-yl)methyl)-4-(1-(4-(trifluoromethyl)phenyl)-1H-pyrazolo[3,4-b]pyridin-3-yl)pyridin-2(1H)-one]	≤ 100 nM	≤ 1000 nM
CN(CCO)c1ccnc(Cn2ccc(-c3nn(-c4ccc(C(F)(F)F)cc4)c4ncccc34)cc2=O)n1 [Compound 75, 1-((4-((2-hydroxyethyl)(methyl)amino)pyrimidin-2-yl)methyl)-4-(1-(4-(trifluoromethyl)phenyl)-1H-pyrazolo[3,4-b]pyridin-3-yl)pyridin-2(1H)-one]	≤ 100 nM	≤ 1000 nM
COCCNc1ccnc(Cn2ccc(-c3nn(-c4ccc(C(F)(F)F)cc4)c4ncccc34)cc2=O)n1 [Compound 76, 1-((4-((2-methoxyethyl)amino)pyrimidin-2-yl)methyl)-4-(1-(4-(trifluoromethyl)phenyl)-1H-pyrazolo[3,4-b]pyridin-3-yl)pyridin-2(1H)-one]	≤ 100 nM	≤ 1000 nM
COCCNc1ccnc(Cn2ccc(-c3nn(-c4ccc(C(F)(F)F)cc4)c4ccccc34)cc2=O)n1 [Compound 78, 1-((4-((2-methoxyethyl)amino)pyrimidin-2-yl)methyl)-4-(1-(4-(trifluoromethyl)phenyl)-1H-indazol-3-yl)pyridin-2(1H)-one]	≤ 100 nM	≤ 1000 nM
COc1ccnc(Cn2ccc(-c3cn(-c4ccc(C(F)(F)F)cc4)c4ncccc34)cc2=O)n1 [Compound 80, 1-((4-methoxypyrimidin-2-yl)methyl)-4-(1-(4-(trifluoromethyl)phenyl)-1 H-pyrrolo[2,3-b]pyridin-3-yl)pyridin-2(1H)-one]	≤ 100 nM	≤ 1000 nM

From patent US20250154127A1, “BICYCLIC HETEROARYL COMPOUNDS AND USES THEREOF” (ETERN BIOPHARMA (SHANGHAI) CO., LTD., priority 2022, published 2025)
